Read-outs that look alike come from different tables or passages of the source.
Columns and labels:
[1] = test system: NQO activity in cultured murine hepatoma cells; conditions: cited from earlier work
[2] = rhesus monkey, in vivo, iv
[3] = set-up: species or system sheep; conditions: in vivo
[4] = set-up: species or system humans; conditions: in vivo
[5] = rat, in vivo; cited from earlier work
[6] = rhesus monkey, in vivo, iv; cited from earlier work
[7] = in vivo, po; cited from earlier work
[8] = mouse, in vivo, cited from earlier work
[9] = rat, in vivo, cited from earlier work
[10] = rabbit, in vivo, cited from earlier work
[11] = in vivo, ip; cited from earlier work
[12] = dog, in vivo, cited from earlier work
[13] = pig, in vivo, cited from earlier work
[14] = test system: azoxymethane- and IQ-induced aberrant crypt foci; conditions: in vivo; cited from earlier work
[15] = test system: bone marrow cells of mice; conditions: mouse, in vivo; cited from earlier work
[16] = mouse, in vivo, po, 2500 mg/kg; cited from earlier work
[17] = rat, in vivo; cited from earlier work; remark: listed apart in the source
[18] = rat, in vivo; cited from earlier work; remark: listed apart in the source
[19] = guinea pig, in vivo; cited from earlier work
[20] = rat, in vivo; cited from earlier work; remark: listed apart in the source
[21] = rat, in vivo; cited from earlier work; remark: listed apart in the source
[22] = in vivo; cited from earlier work

Compound: chlorin e4 ethyl ester
- concentration required to double NQO activity (CD) [1]: 20 µM
- potency as NQO inducer relative to Chl [1]: 50 times

Compound: COc1cc2c(c3oc(=O)c4c(c13)CCC4=O)[C@@H]1C=CO[C@@H]1O2 [AFB1, aflatoxin B1]
- terminal half-life (t1/2β) from all routes of excretion [2]: approximately 24 hours
- t1/2 [3]: approximately 24 hours
- terminal half-life, conservative estimate [4]: less than 24 hours
- time to complete absorption [4]: 0.5 to 1.0 h
- absorption rate constant (ka) [5]: 5.84 ± 0.05 h⁻¹
- dose eliminated in urine as chloroform extractable, first 24 hours [6]: ~10%
- dose eliminated in urine as unbound, first 24 hours [6]: ~30%
- dose eliminated in urine within first 24 hours [6]: 40%
- dose remaining in the liver at 100 hours [6]: 13.6%
- dose remaining in the plasma at 100 hours [6]: 5.8%
- fecal excretion of dose, 24 to 48 hours [6]: 20%
- fecal excretion of dose, 48 to 72 hours [6]: ~6%
- fecal excretion of dose, 72 to 100 hours [6]: ~3%
- fecal excretion of dose, first 24 hours [6]: ~4%
- total excreta after 100 hours, of administered dose [6]: 73.1%
- total dose excreted in first 48 hours [7]: approximately 90%

Compound: Sodium chlorophyllin copper complex
- LD50 ([8]; im): > 500 mg/kg
- LD50 ([8]; ip): > 1000 mg/kg
- LD50 ([8]; iv): > 400 mg/kg
- LD50 ([9]; im): > 250 mg/kg
- LD50 ([9]; ip): > 1000 mg/kg
- LD50 ([9]; iv): > 250 mg/kg
- LD50 ([10]; im): > 60 mg/kg
- LD50 ([10]; ip): > 500 mg/kg
- LD50 ([10]; iv): > 200 mg/kg
- LD50 [11]: > 60 mg/kg
- LD50 ([12]; im): > 50 mg/kg
- LD50 ([12]; ip): > 200 mg/kg
- LD50 ([12]; iv): > 200 mg/kg
- LD50 ([13]; im): > 20 mg/kg
- LD50 ([13]; iv): > 10 mg/kg

Compound: chlorophyll
- azoxymethane- and IQ-induced aberrant crypt foci [14]: inhibited

Compound: sodium copper chlorophyllin
- concentration required to double NQO activity (CD) [1]: 30 µM
- potency as NQO inducer relative to Chl [1]: ~10 times
- reducing clastogenicity from cesium chloride, mercuric chloride and cobalt chloride [15]: demonstrated efficacy
- ill effects [16]: without any ill effects

Compound: potassium sodium chlorophyllin copper complex [sodium potassium chlorophyllin]
- LD50 ([8]; po): 7000 mg/kg
- adverse effects [17]: without any adverse effects except weight loss related to food refusal
- effects in offspring [18]: locomotory difficulties and skeletal muscle defects
- ill effects or pathological change [19]: without ill effects or pathological change
- Cu toxicity or deposition in liver, kidney or spleen [20]: no evidence of Cu toxicity or deposition
- gross or histopathological changes [20]: No gross or histopathological changes
- copper storage in liver, kidney or spleen [21]: No copper storage occurred
- scurvy [22]: no evidence of scurvy
